From paper PMC4279406, “Simultaneous targeting of PI3Kδ and a PI3Kδ-dependent MEK1/2-Erk1/2 pathway for therapy in pediatric B-cell acute lymphoblastic leukemia” (Oncotarget, 2014) come the findings set out here.

SMILES strings stand for the structures.

The subject of assay [1] is PI3Kγ (MCP-1-stimulated THP-1 monocytes). Kind of assay: MCP-1-stimulated Akt phosphorylation in THP-1 cells. It counts as cell-based. The conditions noted are these: MCP-1 100 ng/ml. As for the experimental part: In fibroblasts, signals from the insulin-like growth factor 1 (IGF-1) receptor are mediated by PI3Kα, while lysophosphatidic acid (LPA) stimulates G-protein coupled receptor (GPCR) signals via PI3Kβ[26]. After being pre-incubated with X-370, murine embryonic fibroblasts cultured in serum-free medium were stimulated with IGF-1 or LPA. […] Either PI3Kδ or PI3Kγ can be activated in THP-1 monocytes dependent on the stimulating ligand, among which macrophage colony stimulating factor (M-CSF/CSF-1) activates RTK-coupled PI3Kδ, while monocyte chemoattractant protein-1 (MCP-1) activates PI3Kγ [24]. Accordingly, THP-1 cells cultured in serum-free medium were stimulated with MCP-1 or M-CSF in the presence of X-370 and phosphorylated Akt was measured.
Cell lysates were probed with indicated antibodies. The IC50 values were calculated based on relative band intensity measured with ImageQuant™ TL (GE Healthcare Life Sciences, Piscataway, NJ) (B). Data shown are mean values from three independent experiments. (C, D, E, F) X-370 blocked stimuli-triggered PI3Kδ activation. MEF cells and THP-1 were starved in serum-free medium for 12 h or 4 h respectively and X-370 were added for an additional 1 h treatment following stimulation of IGF-1 at 100 ng/ml for MEF cells (C), LPA at 10 μM for MEF cells (D), MCP-1 at 100ng/ml for THP-1 (E) and M-CSF at 50 ng/ml for THP-1 (F). […]

The subject of assay [2] is PDK1 and MEK1/2 association in Raji cells. Kind of assay: PDK1 immunoprecipitation, association with MEK1/2. The settings on record: 1 μM, 1 h, anti-PDK1 immunoprecipitation. It counts as cell-based, human. As for the experimental part: Figure 5 Inhibition of Erk1/2 phosphorylation by X-370 contributed to its antiproliferative activity (A-C) X-370 inhibited Erk1/2 phosphorylation via PI3K-PDK1-MEK1/2 cascade but not the PI3K-Gab1 positive feedback loop. (A) Raji and SU-DHL-6 cells were exposed to 1 μM X370 for 3 h and protein fraction from cellular membrane was separated using Native Membrane Protein Extraction Kit and probed. WCL: whole cell lysate. (B) Inhibition of PDK1 or MEK1/2 abrogated Erk1/2 phosphorylation. Cells were treated with pharmacological inhibitors of Raf (AZ 628, PLX4032), MEK1/2 (AZD6244), p90RSK (BI-D1870), PI3Kδ (X-370), PDK1 (BX-912), Akt (MK-2206), mTOR (AZD8055) or mTORC1 (Rapamycin) respectively and indicated proteins were detected. (C) X-370 disrupted the association between PDK1 and MEK1/2. Raji cells were treated with 1 μM X370 for 1 h and cell lysates were immunoprecipitated with anti-PDK1 antibody and indicated proteins were detected. WCL: whole cell lysate. […] (E) Raji and Raji MEK DD cells were treated with X-370 for 72 h and cell proliferation was detected by CCK-8 assay. (F) Raji MEK DD cells were treated with X-370 and AZD6244 and cell proliferation was detected by CCK-8 assay. Data were show as mean ± SD of three independent experiments. *: p < 0.05 determined by t-tests at each data point. […]

For the compound `O=C(N1CCCC1)N1CCC(n2cnc3c(-n4c(C(F)F)nc5ccccc54)nc(N4CCOCC4)nc32)CC1` [X-370], the “MCP-1-stimulated Akt phosphorylation” value in assay [1] is listed as “much less activity”. The “association between PDK1 and MEK1/2” value in assay [2] was “dissociation of MEK1/2 and PDK1”.
